Laboratory results: ChEMBL document CHEMBL1201862, “PubChem BioAssay data set” (2004)
Active and inactive are the calls of the source.

Legend:
BJ [1] = assay: cells; assay type: functional, cell-based; conditions: Homo sapiens
[2] = luciferase reporter signal reduction – luminescence, H4-C neuroglioblastoma cells, dose response (AID 2458); assay type: functional, cell-based;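 further: H4 neuroglioblastoma cells stably carrying a luciferase reporter gene fusion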
J774.A1 = assay: Confirmation of image-based Screening Assay for Inhibitors of Phagocytosis. [Related pubchem assays (depositor defined):AID1029, AID1643]; assay type: functional, cell-based; conditions: Mus musculus
[3] = alpha-synuclein stem-loop luciferase translation blockers – H4 neuroglioma cells, luminescence, confirmation (AID 1988); assay type: functional, cell-based
cells [4] = assay type: functional, cell-based
BJ [5] = assay: BJ-TERT fibroblast viability loss – cell-based, RAS-independent, luminescence, dose response (AID 1933); assay type: functional; conditions: Homo sapiens
[6] = alpha-synuclein stem-loop translation blockers – luminescence, H4 neuroglioblastoma cells, dose confirmation, confirmation (AID 2454); assay type: functional, cell-based;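 further: H4 neuroglioblastoma cells carrying an alpha-synuclein 5'UTR luciferase reporter; potency for inhibition of the luciferase signal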
[7] = DRD fibroblast viability loss – cell-based, non-viral oncogenic, luminescence, dose response (AID 1934); assay type: functional; conditions: Homo sapiens
BJ [8] = assay: BJ-TERT-LT-ST fibroblast viability loss – cell-based, RAS-independent, luminescence, dose response (AID 1935); assay type: functional; conditions: Homo sapiens;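 further: BJ fibroblasts immortalized with TERT plus LT and ST oncogenes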
[9] = luciferase reporter signal suppression in cells – H4 neuroglioma cells, luminescence, dose response (AID 1990); assay type: functional, cell-based
Streptococcus = assay: GAS UMAA2166 growth inhibition – luminescence, BacTiterGlo, counter-screen for streptokinase expression inhibitor project, dose response (AID 1915); assay type: functional, organism-based;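 further: potency for reduction of bacterial viability or growth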
[10] = system: Streptococcus sp. 'group A'; assay: Streptococcus pyogenes SK(-)GAS viability under kanamycin – luminescence, BacTiterGlo, confirmation, counter-screen for streptokinase expression inhibitor project, dose response (AID 1900); assay type: functional, organism-based
[11] = biological target: C-C chemokine receptor type 6 (Homo sapiens, UniProt P51684); assay: antagonism of CCR6 beta-arrestin recruitment – cell-based, luminescent beta-arrestin readout, dose response (AID 504728); assay type: functional
[12] = THP-1 cell cytotoxicity, dose response, cytotoxicity control for non-replicating M. tuberculosis project (AID 489025); assay type: functional
[13] = Vero E6 cell cytotoxicity, dose response, cytotoxicity control for non-replicating M. tuberculosis project, secondary assay (AID 492998); assay type: functional, VeroE6; conditions: Vero C1008
Beta-galactosidase = Beta-galactosidase (Escherichia coli, UniProt Q8VNN2); assay: detection-enzyme interference by beta-gal modulators – biochemical, E. coli enzyme, set 3, artefact control for CCR6 antagonist project, dose response (AID 504712); assay type: functional
[14] = Luminescence Cell-Based Dose Retest to Confirm Inhibitors of Cancer Stem Cells. [Related pubchem assays (depositor defined):AID2717, AID2721]; assay type: functional; conditions: Homo sapiens
cells [15] = assay type: functional
[16] = HepG2 cell cytotoxicity, dose response, cytotoxicity control for non-replicating M. tuberculosis project (AID 489018); assay type: functional; conditions: Mycobacterium tuberculosis
[17] = biological target: T1, Zinc finger protein mex-5 (Caenorhabditis elegans, UniProt Q9XUB2); assay: potency of MEX-5 RNA-binding blockers – biochemical, C. elegans, fluorescence polarization, dose response (AID 1960)
T1 sequence (Q9XUB2 whole entry): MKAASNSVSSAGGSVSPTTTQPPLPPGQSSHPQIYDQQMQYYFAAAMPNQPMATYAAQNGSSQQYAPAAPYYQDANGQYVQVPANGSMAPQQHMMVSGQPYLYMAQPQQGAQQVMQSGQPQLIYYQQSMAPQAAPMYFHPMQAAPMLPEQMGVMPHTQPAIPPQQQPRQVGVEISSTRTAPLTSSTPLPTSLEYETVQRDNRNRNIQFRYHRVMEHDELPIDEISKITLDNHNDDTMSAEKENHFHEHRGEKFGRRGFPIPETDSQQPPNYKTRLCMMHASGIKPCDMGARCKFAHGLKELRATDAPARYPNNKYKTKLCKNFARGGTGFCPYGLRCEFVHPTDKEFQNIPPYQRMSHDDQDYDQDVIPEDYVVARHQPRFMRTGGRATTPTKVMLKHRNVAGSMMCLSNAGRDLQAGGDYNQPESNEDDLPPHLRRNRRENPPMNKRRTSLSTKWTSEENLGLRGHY

[18] = biological target: Botulinum neurotoxin type F (Clostridium botulinum, UniProt P30996); assay: High-throughput multiplex microsphere dose response for inhibitors of toxin protease, specifically Botulinum neurotoxin light chain F protease, compounds from Powder Set 01.; assay type: functional, Clostridium botulinum Bf; conditions: read-out: EC50_MICROM
Lethal factor = Lethal factor (Bacillus anthracis, UniProt P15917); assay: High-throughput multiplex microsphere dose response for inhibitors of toxin protease, specifically Lethal Factor protease, compounds from Powder Set 01.; assay type: functional, Bacillus anthracis str. A2012; conditions: read-out: EC50_MICROM
Ephrin type-A receptor 4 = Ephrin type-A receptor 4 (Mus musculus, UniProt Q03137); assay: EphA4 ligand-binding antagonists – biochemical, colorimetric, mouse EphA4, primary screen (AID 689); assay type: functional
[19] = biological target: T2, Botulinum neurotoxin type A (Clostridium botulinum (strain Hall / ATCC 3502 / NCTC 13319 / Type A), UniProt P0DPI1); assay: High-throughput multiplex microsphere dose response for inhibitors of toxin protease, specifically Botulinum neurotoxin light chain A protease, compounds from Powder Set 01.; assay type: functional, Clostridium botulinum A str. ATCC 3502; conditions: read-out: EC50_MICROM
[20] = biological target: T2, Botulinum neurotoxin type A; assay: High-throughput multiplex microsphere dose response for inhibitors of toxin protease, specifically Botulinum neurotoxin light chain A protease, compounds from Cherry Pick 01.; assay type: functional; conditions: read-out: EC50_MICROM
ORF 73 = ORF 73 (Human herpesvirus 8, UniProt O40947); assay: KSHV LANA DNA-binding disruption – biochemical, fluorescence polarization, cherry-picked samples, dose response (AID 504725); design: species or system Human gammaherpesvirus 8;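 further: fluorescence polarization of a labeled DNA duplex reporting LANA DNA binding; potency is for inhibitors that block LANA binding to the DNA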
[21] = biological target: T3, RNA-binding protein pos-1 (Caenorhabditis elegans, UniProt G5EF15); assay: disruptors of C. elegans POS-1 RNA interaction – biochemical, fluorescence polarization, dose response (AID 1964);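 further: purified POS-1 fused to maltose binding protein made in E. coli; potency of compounds blocking POS-1 binding to fluorescent RNA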
T3 sequence (G5EF15 whole entry): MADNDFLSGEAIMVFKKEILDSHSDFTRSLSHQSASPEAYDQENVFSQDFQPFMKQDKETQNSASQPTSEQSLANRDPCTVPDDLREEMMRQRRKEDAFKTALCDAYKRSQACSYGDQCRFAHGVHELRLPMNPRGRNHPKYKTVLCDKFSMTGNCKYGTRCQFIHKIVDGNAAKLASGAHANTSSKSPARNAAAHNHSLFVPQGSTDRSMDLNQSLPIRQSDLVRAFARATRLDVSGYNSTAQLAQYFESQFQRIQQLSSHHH

Genome polyprotein = Genome polyprotein (dengue virus type 2, UniProt P29990); assay: flavivirus cap methylation enzyme inhibition – biochemical, confirmation dose response, primary screen (AID 588689); assay type: functional
[22] = biological target: 1-acylglycerol-3-phosphate O-acyltransferase ABHD5/Perilipin-5 (Homo sapiens, UniProt Q00G26+Q8WTS1); assay: Luminescence-based biochemical high throughput dose response assay for inhibitors of the interaction of the lipase co-activator protein, abhydrolase domain containing 5 (ABHD5) with perilipin-5 (MLDP; PLIN5) (2K validation set). [Related pubchem assays (depositor defined):AID493035, AID493241]
Perilipin-1/ABHD5 = Perilipin-1/ABHD5 (Homo sapiens, UniProt O60240+Q8WTS1); assay: Luminescence-based biochemical high throughput dose response assay for inhibitors of the interaction of the lipase co-activator protein, abhydrolase domain containing 5 (ABHD5) with perilipin-1 (PLIN1) (2K validation set). [Related pubchem assays (depositor defined):AID493027, AID493057]
[23] = biological target: Voltage-dependent T-type calcium channel subunit alpha-1H (Homo sapiens, UniProt O95180); assay: human CACNA1H calcium influx blockade – cell-based, synthetic library set 1, calcium flux (AID 493022); assay type: functional
[24] = biological target: T4, Kappa-type opioid receptor (Homo sapiens, UniProt P41145); assay: SAR analysis of small molecule antagonists of the kappa opioid receptor via a luminescent beta-arrestin assay - Set 6. [Related pubchem assays (depositor defined):AID1777, AID1778, AID1785, AID1786, AID1966, AID2133, AID2136, AID2285]; assay type: functional
[25] = biological target: Delta-type opioid receptor (Homo sapiens, UniProt P41143); assay: SAR Analysis of Antagonists of the DOR Receptor using an Image-Based Assay - Set 3. [Related pubchem assays (depositor defined):AID1777, AID1785]; assay type: functional;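 further: U2OS cells expressing DOR1 and beta-arrestin GFP stimulated with 100 nM SNC80; imaging of GFP-tagged beta-arrestin moving into spots after receptor activation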
Mu-type opioid receptor = Mu-type opioid receptor (Homo sapiens, UniProt P35372); assay: SAR Analysis of Antagonists of the MOR Receptor using an Image-Based Assay - Set 3. [Related pubchem assays (depositor defined):AID1777, AID1785, AID1786, AID1966, AID2133, AID2136, AID2284, AID2285, AID2420]; assay type: functional
[26] = biological target: T4, Kappa-type opioid receptor; assay: SAR analysis of Antagonists of the Kappa Opioid Receptor (KOR) using an Image-Based Assay - Set 4. [Related pubchem assays (depositor defined):AID1777, AID1785]; assay type: functional
[27] = biological target: T4, Kappa-type opioid receptor; assay: SAR analysis of small molecule antagonists of the kappa opioid receptor via a luminescent beta-arrestin assay - Set 4. [Related pubchem assays (depositor defined):AID1777, AID1778, AID1785, AID1786, AID1966, AID2133, AID2136, AID2285]; assay type: functional

T4 sequence (P41145 whole entry): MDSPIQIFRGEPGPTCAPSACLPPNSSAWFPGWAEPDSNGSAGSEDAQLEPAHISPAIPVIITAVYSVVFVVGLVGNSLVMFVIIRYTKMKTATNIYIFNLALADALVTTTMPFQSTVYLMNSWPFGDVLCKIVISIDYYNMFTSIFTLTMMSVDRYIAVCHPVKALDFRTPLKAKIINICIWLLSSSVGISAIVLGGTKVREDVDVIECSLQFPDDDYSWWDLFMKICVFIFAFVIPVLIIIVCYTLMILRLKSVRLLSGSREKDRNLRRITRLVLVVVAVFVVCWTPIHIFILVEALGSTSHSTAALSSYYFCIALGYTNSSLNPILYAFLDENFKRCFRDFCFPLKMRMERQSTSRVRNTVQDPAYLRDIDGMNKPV
T2 sequence (P0DPI1 2-448 limits assumed): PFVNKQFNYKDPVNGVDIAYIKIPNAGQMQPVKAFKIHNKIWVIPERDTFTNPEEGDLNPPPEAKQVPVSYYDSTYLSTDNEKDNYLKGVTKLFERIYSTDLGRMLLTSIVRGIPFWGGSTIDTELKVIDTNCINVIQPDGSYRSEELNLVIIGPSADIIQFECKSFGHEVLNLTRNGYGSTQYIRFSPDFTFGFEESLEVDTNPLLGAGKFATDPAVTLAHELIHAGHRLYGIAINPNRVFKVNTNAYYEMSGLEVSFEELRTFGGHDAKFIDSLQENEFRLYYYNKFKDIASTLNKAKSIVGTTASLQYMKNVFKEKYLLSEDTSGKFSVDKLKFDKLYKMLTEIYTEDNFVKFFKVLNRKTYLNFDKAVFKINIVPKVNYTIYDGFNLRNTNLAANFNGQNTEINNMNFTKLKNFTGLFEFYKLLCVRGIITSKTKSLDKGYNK
Sequence of Beta-galactosidase (Q8VNN2 whole entry): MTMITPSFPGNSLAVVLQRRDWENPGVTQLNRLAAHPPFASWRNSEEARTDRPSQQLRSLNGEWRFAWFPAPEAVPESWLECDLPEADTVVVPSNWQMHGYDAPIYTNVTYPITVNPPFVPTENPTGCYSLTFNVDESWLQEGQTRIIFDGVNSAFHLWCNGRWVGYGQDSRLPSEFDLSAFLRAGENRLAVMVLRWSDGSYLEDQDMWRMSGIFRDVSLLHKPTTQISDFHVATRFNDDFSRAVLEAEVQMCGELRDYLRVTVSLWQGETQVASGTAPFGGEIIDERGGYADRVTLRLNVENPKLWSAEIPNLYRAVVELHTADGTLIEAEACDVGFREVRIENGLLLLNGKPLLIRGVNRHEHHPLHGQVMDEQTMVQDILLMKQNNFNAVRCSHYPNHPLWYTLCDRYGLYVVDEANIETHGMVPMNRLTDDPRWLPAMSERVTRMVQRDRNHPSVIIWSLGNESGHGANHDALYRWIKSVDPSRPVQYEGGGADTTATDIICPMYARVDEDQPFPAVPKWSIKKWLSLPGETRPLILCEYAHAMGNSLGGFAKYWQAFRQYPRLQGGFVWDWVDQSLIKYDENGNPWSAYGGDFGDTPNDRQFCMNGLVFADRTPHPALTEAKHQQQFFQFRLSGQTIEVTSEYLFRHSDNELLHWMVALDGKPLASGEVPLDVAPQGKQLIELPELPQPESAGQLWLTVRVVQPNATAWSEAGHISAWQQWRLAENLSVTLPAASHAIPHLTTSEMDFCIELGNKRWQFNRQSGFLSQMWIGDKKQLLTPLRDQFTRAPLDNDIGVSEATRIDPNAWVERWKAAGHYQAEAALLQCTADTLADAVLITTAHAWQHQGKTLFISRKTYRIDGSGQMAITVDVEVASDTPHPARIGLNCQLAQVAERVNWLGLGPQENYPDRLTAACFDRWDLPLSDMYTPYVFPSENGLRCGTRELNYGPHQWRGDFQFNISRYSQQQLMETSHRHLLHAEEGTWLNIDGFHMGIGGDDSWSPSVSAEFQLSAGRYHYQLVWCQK
Sequence of Botulinum neurotoxin type F (P30996 1-436 limits assumed): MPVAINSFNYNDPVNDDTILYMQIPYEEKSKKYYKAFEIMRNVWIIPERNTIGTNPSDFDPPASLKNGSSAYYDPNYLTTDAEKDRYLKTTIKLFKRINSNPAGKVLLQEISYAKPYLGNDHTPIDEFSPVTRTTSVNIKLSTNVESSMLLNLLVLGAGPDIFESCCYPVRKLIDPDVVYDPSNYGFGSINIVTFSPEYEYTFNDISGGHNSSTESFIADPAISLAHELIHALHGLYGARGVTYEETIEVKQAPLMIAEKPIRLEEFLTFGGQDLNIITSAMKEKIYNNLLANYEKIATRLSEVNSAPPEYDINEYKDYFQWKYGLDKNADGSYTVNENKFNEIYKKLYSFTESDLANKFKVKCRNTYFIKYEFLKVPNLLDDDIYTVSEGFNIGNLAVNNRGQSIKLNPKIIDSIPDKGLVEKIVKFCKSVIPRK
Sequence of Voltage-dependent T-type calcium channel subunit alpha-1H (O95180 whole entry): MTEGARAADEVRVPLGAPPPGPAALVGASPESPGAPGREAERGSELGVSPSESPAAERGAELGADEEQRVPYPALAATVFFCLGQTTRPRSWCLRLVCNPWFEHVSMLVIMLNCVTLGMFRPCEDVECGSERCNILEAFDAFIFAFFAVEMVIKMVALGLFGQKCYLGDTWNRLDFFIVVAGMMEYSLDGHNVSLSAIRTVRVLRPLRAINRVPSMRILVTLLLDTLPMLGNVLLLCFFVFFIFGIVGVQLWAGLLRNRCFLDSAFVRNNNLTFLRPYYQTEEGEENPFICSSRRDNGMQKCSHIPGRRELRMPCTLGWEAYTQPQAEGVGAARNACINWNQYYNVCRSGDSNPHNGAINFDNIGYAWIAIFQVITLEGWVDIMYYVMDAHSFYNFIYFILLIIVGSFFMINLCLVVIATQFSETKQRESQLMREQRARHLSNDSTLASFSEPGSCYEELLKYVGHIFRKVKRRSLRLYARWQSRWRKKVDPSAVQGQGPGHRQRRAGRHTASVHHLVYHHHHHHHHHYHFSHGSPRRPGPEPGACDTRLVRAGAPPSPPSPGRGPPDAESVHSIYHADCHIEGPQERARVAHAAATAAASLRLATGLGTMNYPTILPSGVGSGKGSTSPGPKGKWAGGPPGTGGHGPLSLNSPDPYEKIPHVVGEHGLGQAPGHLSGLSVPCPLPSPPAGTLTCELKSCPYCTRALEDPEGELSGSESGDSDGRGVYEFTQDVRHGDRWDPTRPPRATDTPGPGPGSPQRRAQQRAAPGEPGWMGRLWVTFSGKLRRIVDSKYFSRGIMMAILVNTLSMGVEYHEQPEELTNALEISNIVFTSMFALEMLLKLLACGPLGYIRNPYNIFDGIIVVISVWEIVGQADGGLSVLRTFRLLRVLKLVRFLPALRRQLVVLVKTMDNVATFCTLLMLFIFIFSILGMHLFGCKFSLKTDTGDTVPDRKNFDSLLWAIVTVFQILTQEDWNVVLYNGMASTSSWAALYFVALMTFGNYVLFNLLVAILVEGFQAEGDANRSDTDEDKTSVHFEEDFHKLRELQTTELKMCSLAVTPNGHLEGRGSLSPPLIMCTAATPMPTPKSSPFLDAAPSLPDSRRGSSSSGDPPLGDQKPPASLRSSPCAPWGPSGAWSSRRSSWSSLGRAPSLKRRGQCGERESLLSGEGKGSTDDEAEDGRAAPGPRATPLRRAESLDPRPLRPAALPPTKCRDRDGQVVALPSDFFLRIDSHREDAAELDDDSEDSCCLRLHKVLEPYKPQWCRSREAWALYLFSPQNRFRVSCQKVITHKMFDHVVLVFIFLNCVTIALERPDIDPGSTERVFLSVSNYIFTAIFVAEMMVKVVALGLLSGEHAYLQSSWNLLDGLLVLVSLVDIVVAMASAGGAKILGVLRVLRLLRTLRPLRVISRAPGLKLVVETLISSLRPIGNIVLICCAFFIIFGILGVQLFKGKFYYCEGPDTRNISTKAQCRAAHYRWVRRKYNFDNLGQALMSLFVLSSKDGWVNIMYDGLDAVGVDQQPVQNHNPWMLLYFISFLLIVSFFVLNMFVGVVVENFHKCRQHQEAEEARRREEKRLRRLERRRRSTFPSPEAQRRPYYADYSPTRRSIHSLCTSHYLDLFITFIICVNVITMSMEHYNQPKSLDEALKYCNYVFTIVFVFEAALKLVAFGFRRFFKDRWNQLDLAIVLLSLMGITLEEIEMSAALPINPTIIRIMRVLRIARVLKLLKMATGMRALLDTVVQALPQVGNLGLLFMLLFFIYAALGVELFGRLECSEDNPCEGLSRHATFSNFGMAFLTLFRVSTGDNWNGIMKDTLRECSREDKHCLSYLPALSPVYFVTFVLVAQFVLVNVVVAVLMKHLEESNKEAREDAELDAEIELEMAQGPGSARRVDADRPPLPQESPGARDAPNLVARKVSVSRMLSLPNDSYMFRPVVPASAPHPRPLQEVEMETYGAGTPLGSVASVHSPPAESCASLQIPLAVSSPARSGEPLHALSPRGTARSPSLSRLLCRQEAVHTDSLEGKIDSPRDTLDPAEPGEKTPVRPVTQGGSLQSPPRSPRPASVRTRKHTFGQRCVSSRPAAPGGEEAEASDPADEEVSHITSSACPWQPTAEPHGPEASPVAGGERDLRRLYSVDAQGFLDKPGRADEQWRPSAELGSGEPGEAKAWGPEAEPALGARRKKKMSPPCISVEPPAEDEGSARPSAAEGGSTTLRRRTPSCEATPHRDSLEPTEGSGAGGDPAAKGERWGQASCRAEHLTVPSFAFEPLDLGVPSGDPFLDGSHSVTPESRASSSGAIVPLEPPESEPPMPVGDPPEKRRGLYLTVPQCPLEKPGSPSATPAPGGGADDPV
Sequence of Delta-type opioid receptor (P41143 whole entry): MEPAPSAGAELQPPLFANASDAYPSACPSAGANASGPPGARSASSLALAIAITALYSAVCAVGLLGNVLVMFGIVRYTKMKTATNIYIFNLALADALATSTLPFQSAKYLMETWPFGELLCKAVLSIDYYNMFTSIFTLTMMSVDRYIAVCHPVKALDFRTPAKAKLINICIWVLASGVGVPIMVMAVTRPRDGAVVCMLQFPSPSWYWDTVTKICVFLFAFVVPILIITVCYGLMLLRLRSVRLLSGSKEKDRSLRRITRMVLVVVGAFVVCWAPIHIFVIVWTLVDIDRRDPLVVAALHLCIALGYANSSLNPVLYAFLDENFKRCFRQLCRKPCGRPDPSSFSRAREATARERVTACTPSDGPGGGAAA

## COc1ccccc1C1CC(=O)Nc2cc3c(cc21)OCCO3 (stereo unspecified)
BJ [1]
  EC50: 19.4 µM (active)
[2]
  EC50: 2.17 µM (active)
J774.A1
  IC50: > 25 µM (inactive)
[3]
  EC50: < 0.1 µM (active)
Cells [4]
  EC50: > 12 µM (not active)
BJ [5]
  EC50: 7.46 µM (active)
[6]
  EC50: > 12 µM (not active)
[7]
  EC50: 2 µM (active)
BJ [8]
  EC50: 1.4 µM (inconclusive)
[9]
  EC50: 7.13 µM (inconclusive)

## Cc1cc(NCc2ccccn2)n2nc(C)c(-c3ccc(Cl)cc3)c2n1
Streptococcus
  EC50: 6.9 µM (active)
[10]
  EC50: 2.89 µM (active)
[11]
  IC50: > 66.6 µM (inactive)
[12]
  CC50: 6.61 µM (active)
[13]
  CC50: 15.1 µM (active)
Beta-galactosidase
  IC50: > 66.6 µM (inactive)
[14]
  AC50: 3.86 µM (active)
Cells [15]
  IC50: 2.1 µM (active)
[16]
  CC50: 3.6 µM (active)

## c1ccc(-c2cn3nc(-c4ccccc4)c(-c4ccccc4)nc3n2)cc1
[17]
  EC50: 3.84 µM (active)
[18]
  EC50: 5.3 µM (active)
Lethal factor
  EC50: 1.6 µM (active)
Ephrin type-A receptor 4
  IC50: 1.2 µM (active)
[19]
  EC50: 0.6 µM (active)
[20]
  EC50: 5.8 µM (active)
ORF 73
  AC50: 47.3 µM (active)
[21]
  EC50: 2.82 µM (active)

## CCOc1ccc(N2C(=O)NC(=O)/C(=C\c3cc(OC)c(OC)cc3[N+](=O)[O-])C2=O)cc1
Genome polyprotein
  IC50: 27.6 µM (active)
[22]
  IC50: 2.8 µM (active)
Perilipin-1/ABHD5
  IC50: 2.21 µM (active)

## O=C(COc1ccccc1F)Nc1nnc(-c2ccc3c(c2)OCO3)o1
[23]
  EC50: 10 µM (active)

## COc1ccc(N2CCN(CCCCNC(=O)Cn3c(=O)c4cccn4c4c(C)ccnc43)CC2)cc1
[24]
  IC50: 1.59 µM (active)
[25]
  IC50: > 32 µM (inactive)
Mu-type opioid receptor
  IC50: > 32 µM (inactive)
[26]
  IC50: 0.00521 µM (active)
[27]
  IC50: 0.907 µM (active)
